Results taken from US6703020B1 (Board of Regents, The University of Texas System, priority 1999, dated 2004).

What was measured:
VEGFR2 (KDR/Fc) = assay: Coprecipitation assay, VEGF with VEGFR2/Fc; format: binding; details: 40 ng VEGF, 200 ng receptor/Fc
Protocol: 200 ng of soluble forms of VEGFR1 (Flt-1/Fc) or VEGFR2 (KDR/Fc, R&D Systems, Minneapolis, Minn.) were added for a total volume of 50 μl and incubated for 2 hrs. The receptor/Fc constructs were precipitated using Protein A-sepharose beads and the resulting precipitate was washed 4 times with binding buffer.
Reducing sample buffer was added to the pellet and supernatant of each reaction and both were analyzed by 12% SDS-PAGE and transferred to PVDF membranes. […] The soluble receptor/Fc constructs were also detected by using peroxidase-conjugated goat anti-human Fc (Kirkegaard & Perry Laboratories, Inc.)
The receptor/Fc constructs were precipitated by incubation with Protein A sepharose beads. The precipitate was washed and resuspended in reducing sample buffer and separated by 12% SDS-PAGE and transferred to PVDF.

[1] = test system: human NCI-H358 NSCLC tumors; assay: Localization of 2C3-GUS in SCID mice bearing NCI-H358 tumors; format: in vivo, mouse
[2] = Blood clearance of radioiodinated 2C3-GUS in mice; format: in vivo, mouse; details: intravenous
From the text: 2C3-GUS was radioiodinated with ^125I to a specific activity of 5×10^6 cpm/μg.

NCI-H358 NSCLC tumors = assay: In vivo tumor therapy of established NCI-H358 xenografts; set-up: species or system mouse
Protocol: (§1) Male nu/nu mice bearing subcutaneous NCI-H358 tumors or HT1080 fibrosarcoma 200-400 mm^3 in size were injected i.p. with test or control antibodies. The NCI-H358 bearing mice were treated with 100 μg of antibodies per injection three times a week during the first week and twice a week during the second and third week. The mice were then switched to 50 μg per injection every five days. The HT1080 bearing mice were treated with 100 μg of the indicated antibody or saline every other day throughout the duration of the study. In both studies, mice were sacrificed when their tumors reached 2500 mm^3 in size or earlier if tumors began to ulcerate.
Doses were 50-100 μg every 3-5 days. […] In addition to measuring mean tumor volume (FIG. 4), photographs of the mice from each treatment group were also taken to show the differences in tumor size and appearance at the end of the study.

[3] = test system: NCI-H358 NSCLC and HT29 colon adenocarcinoma xenografts; assay: In vivo localization to human tumor xenografts in mice; set-up: species or system mouse; key to Immunohistochemical Reactivity Heart / Immunohistochemical Reactivity Lung / Immunohistochemical Reactivity Liver / Immunohistochemical Reactivity Kidney / Immunohistochemical Reactivity Intestine / Immunohistochemical Reactivity Spleen / Immunohistochemical Reactivity Tumor: −, negative; +/−, very weak; 1+, weak; 2+, moderate; 3+, strong; 4+, very strong
Protocol: Tumors were grown subcutaneously in immunocompromised mice (NCI-H358 NSCLC in nu/nu mice and HT29 colon adenocarcinoma in SCID mice) until the tumor volume was approximately 1 cm^3. 100 μg of unlabeled antibody for studies using SCID mice, or 100 μg of biotinylated antibody for studies using nude mice, was injected intravenously via a tail vein. Twenty four hours later, the mice were anesthetized, perfused with PBS, and tumor and organs including heart, lungs, liver, kidneys, intestines and spleen were collected and snap frozen in liquid nitrogen.
The tumor and organs from each mouse were sectioned on a cryostat and stained for antibody immunohistochemically as above, with the exception that sections from the nude mice were developed using peroxidase labeled streptavidin-biotin complex (Dako, Carpinteria, Calif.) and the sections from the SCID mice were developed using two peroxidase-conjugated secondary antibodies, a goat anti-mouse IgG+IgM followed by a rabbit anti-goat IgG.
100 μg of GV39M and 3E7 or isotype-matched control IgG were injected into SCID mice bearing HT29 human colonic adenocarcinomas. Twenty-four hours later, the mice were sacrificed, exsanguinated and the tumors and tissues were removed.

[4] = molecular target: T1, guinea pig VEGF in line 10 guinea pig tumor sections (Cavia porcellus, UniProt P26617); assay: Immunohistochemistry on guinea pig line 10 tumor sections; format: binding; set-up: key: −, negative; +/−, very weak; 1+, weak; 2+, moderate; 3+, strong; 4+, very strong; details: acetone fixed frozen sections; 2C3 and 12D7 at 20 μg/ml, others 5-10 μg/ml
T1 construct: from tissue; host or cells: frozen sections of line 10 hepatocellular carcinoma grown in strain 2 guinea pigs
T1 sequence (P26617 1-164): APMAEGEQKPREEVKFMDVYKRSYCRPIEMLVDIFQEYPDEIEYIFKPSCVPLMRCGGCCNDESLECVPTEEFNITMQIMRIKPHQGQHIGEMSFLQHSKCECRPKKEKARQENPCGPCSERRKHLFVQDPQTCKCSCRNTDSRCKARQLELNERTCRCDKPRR
Protocol: (§2) Guinea pig line 10 hepatocellular carcinoma tumor cells (obtained from Dr. Ronald Neuman, NIH, Bethesda, Md.) were grown in strain 2 guinea pigs (NCI, Bethesda, Md.). The human tumors NCI-H358 non-small cell lung carcinoma (NSCLC), NCI-H460 NSCLC (both obtained from Dr. Adi Gazdar, UT Southwestern, Dallas, Tex.), HT29 colon adenocarcinoma (American Type Culture Collection), and L540CY Hodgkin's lymphoma (obtained from Professor V. Diehl, Cologne, Germany) were grown as xenografts in CB17 SCID mice (Charles River, Wilmington, Mass.).
(§3) Tumors were snap frozen in liquid nitrogen and stored at −70° C. Frozen samples of tumor specimens from patients were obtained from the National Cancer Institute Cooperative Human Tissue Network (Southern Division, Birmingham, Ala.). Immununohistochemistry was performed as described by Burrows et al. (1995).

KDR on ABAE cells = assay: 125I-VEGF binding studies on KDR expressing endothelial cells; format: cell-based, bovine
HT1080 fibrosarcoma = assay: In vivo tumor therapy of established HT1080 xenografts; set-up: species or system mouse; details: 100 μg every two days
Protocol: as §1

VEGFR2 (KDR/Flk-1) = assay: ELISA of VEGF binding to VEGFR2-coated wells; set-up: species or system mouse
VEGFR1 (FLT-1) = assay: ELISA of VEGF binding to VEGFR1-coated wells
[5] = test system: Human tumor xenografts (NCI-H358 NSCLC, NCI-H460 NSCLC, HT29 colon adenocarcinoma, L540 Hodgkin's lymphoma); assay: Immunohistochemistry on frozen sections of human tumor xenografts; format: binding, mouse; set-up: key: −, negative; +/−, very weak; 1+, weak; 2+, moderate; 3+, strong; 4+, very strong; details: acetone fixed frozen sections; 2C3 and 12D7 at 20 μg/ml, others 5-10 μg/ml
Protocol: as §2, §3
The immunohistochemical reactivity of 3E7, GV39M, and 11B5 on NCI-H358 human NSCLC xenografts was determined and compared with control antibodies (an IgG of irrelevant specificity; A-20, a rabbit anti-VEGF antibody; and MECA 32, a rat anti-mouse endothelial cell antibody). 8 μm frozen sections of NCI-H358 human NSCLC grown in SCID mice were stained using an indirect immunoperoxidase technique and were counterstained with hematoxylin.

[6] = test system: A673 rhabdomyosarcoma and LS174T colon adenocarcinoma tumors; assay: Treatment of mice with established A673 and LS174T tumors; format: in vivo, mouse
Human tumors (various) = assay: Immunohistochemistry on frozen sections of human tumors; format: binding; set-up: key: −, negative; +/−, very weak; 1+, weak; 2+, moderate; 3+, strong; 4+, very strong; details: acetone fixed frozen sections; 2C3 and 12D7 at 20 μg/ml, others 5-10 μg/ml
Protocol: as §3
(§4) Tumors examined through immunohistochemistry were human tumors of various types from cancer patients, transplantable human tumor xenografts of various types grown in mice, guinea pig Line 10 tumor grown in guinea pig, and mouse 3LL tumor grown in mice (see legend to Table 3 for details).

A673 rhabdomyosarcoma = assay: In vivo tumor growth inhibition, newly implanted A673; set-up: species or system mouse; details: 100 μg i.p. 2 times per wk from day 1, nu/nu mice; controls approximately 1000 mm^3
Protocol: (§5) Nu/nu mice were injected subcutaneously with either 1×10^7 NCI-H358 NSCLC cells or 5×10^6 A673 rhabdomyosarcoma cells on day 0. […] The tumors were then measured twice per wk for a period of approximately six wk for the NCI-H358 bearing mice and four wk for the A673 bearing mice. Tumor volume was calculated according to the formula: volume=L×W×H, where L=length, W=width, H=height.

NCI-H358 NSCLC = assay: In vivo tumor growth inhibition, newly implanted NCI-H358; set-up: species or system mouse
Protocol: as §5

[7] = test system: mouse VEGF in mouse 3LL Lewis Lung carcinoma tumor sections; assay: Immunohistochemistry on mouse 3LL tumor sections; format: binding; set-up: key: −, negative; +/−, very weak; 1+, weak; 2+, moderate; 3+, strong; 4+, very strong; details: acetone fixed frozen sections; 2C3 and 12D7 at 20 μg/ml, others 5-10 μg/ml
Protocol: as §3, §4

[8] = tumor-bearing mice, antibody intravenously 24 hours prior to sacrifice

Sequence of mouse VEGF in mouse 3LL Lewis Lung carcinoma tumor sections (Q00731 205-317 limits assumed): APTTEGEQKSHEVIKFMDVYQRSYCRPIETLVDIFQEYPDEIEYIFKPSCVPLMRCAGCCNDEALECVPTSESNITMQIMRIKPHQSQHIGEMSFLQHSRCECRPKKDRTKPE

Which “blocking of binding of VEGF to VEGFR2/Fc in solution” value (VEGFR2 (KDR/Fc)) does the source give for 2C3 F(ab′)2: F(ab′)2 of 2C3 here?
The value was “blocked”.

What does the source list for 2C3-GUS [Clone 2C3-GUS]?
localization after i.v. injection ([1]; SCID mice, subcutaneous NCI-H358): specifically localized to tumor vasculature and surrounding tumor stroma; staining of normal tissues ([1]; mouse, in vivo, sc): unstained; t½ α of clearance from the blood [2]: about 6 hours; t½ β of clearance from the blood [2]: about 25 hours

For “2C3: anti-VEGF monoclonal antibody, IgG2a k, hybridoma ATCC PTA 1595; blocks VEGF binding to VEGFR2 but not VEGFR1 [Clone 2C3]”, which “mean tumor volume after approximately 14 wk of treatment” value (NCI-H358 NSCLC tumors; established NCI-H358, 100 μg, prolonged treatment) is on record?
The value was 84 mm^3.

What about the “mean tumor volume at the end of the study, % of the initial mean tumor volume” value (NCI-H358 NSCLC tumors; established NCI-H358, 50-100 μg i.p. every 3-5 days, approximately 10 weeks) of the same substance?
The value was 30%.

And the “decrease in mean tumor volume” value (NCI-H358 NSCLC tumors; established NCI-H358, approximately 14 wk)?
The value was “approximately 80%”.

And the mean tumor weight (NCI-H358 NSCLC tumors; established NCI-H358, end of the study (day 116))?
Its mean tumor weight is 0.054 g.

And the “Immunohistochemical Reactivity Tumor” value ([3]; 2C3: NCI-H358 in nu/nu mice, 3E7, GV39M: HT29 in SCID mice, 24 hours after i.v.)?
The value was 3+.

And the “localization in the HT29 human tumor model” value ([3]; after i.v. injection)?
Its value is “localized strongly to the connective tissue”.

What about the “Immunohistochemical Reactivity Heart” value [3, 8] of the same substance?
The value was “−”.

What about the “Immunohistochemical Reactivity Intestine” value [3, 8] of the same substance?
The value was “−”.

What about the “Immunohistochemical Reactivity Kidney” value [3, 8] of the same substance?
Its value is “−”.

And the “Immunohistochemical Reactivity Liver” value [3, 8]?
The value was “−”.

And the “Immunohistochemical Reactivity Lung” value [3, 8]?
Its value is “−”.

And the “Immunohistochemical Reactivity Spleen” value [3, 8]?
The value was “−”.

What about the “Endothelial Cell Staining Guinea Pig Tumor (Line 10)” value [4] of the same substance?
Its value is “−”.

And the “blocking of 125I-VEGF binding to KDR” value (KDR on ABAE cells)?
Its value is “blocks VEGF from binding to KDR in a concentration dependent manner”.

What about the “growth of HT1080 tumors” value (HT1080 fibrosarcoma) of the same substance?
Its value is “arrested the growth”.

What about the “Blocks VEGF from binding to VEGFR2” value (VEGFR2 (KDR/Flk-1)) of the same substance?
Its value is “Yes”.

What about the “effect on VEGF binding to VEGFR2 in ELISA” value (VEGFR2 (KDR/Flk-1); 100-1000 fold excess) of the same substance?
The value was “blocked”.

And the “amount VEGF that bound to VEGFR2-coated ELISA wells maintained at” value (VEGFR2 (KDR/Flk-1); 100 fold molar excess over VEGF)?
The value was “about 92%”.

What about the “amount VEGF that bound to VEGFR2-coated wells, % of amount bound in absence of antibody” value (VEGFR2 (KDR/Flk-1); 1000-fold molar excess over VEGF (1 nM)) of the same substance?
Its value is ~19%.

And the “Blocks VEGF from binding to VEGFR1” value (VEGFR1 (FLT-1))?
The value was “No”.

And the “Endothelial Cell Staining Xenograft (various)” value [5]?
The value was “−”.

What about the “growth of established A673 rhabdomyosarcoma and LS174T colon adenocarcinoma tumors” value [6] of the same substance?
The value was “significantly slowed”.

And the “Endothelial Cell Staining Hu Tumor (various)” value (Human tumors (various))?
Its value is “−”.

And the “final tumor volume, A673 rhabdomyosarcoma” value (A673 rhabdomyosarcoma)?
The value was “approximately 150 mm^3”.

What about the “final tumor volume, NCI-H358 NSCLC” value (NCI-H358 NSCLC; 100 μg i.p. 2 times per wk from day 1, nu/nu mice, controls approximately 1000 mm^3) of the same substance?
The value was “approximately 150 mm^3”.

And the “prevention of tumor growth at lower doses” value (NCI-H358 NSCLC; 10 or 1 μg twice per wk, NCI-H358 and A673)?
The value was “less effective”.

What about the “Endothelial Cell Staining Mouse Tumor (3LL)” value [7] of the same substance?
The value was “−”.
